Test system: Metabolism protein genes
Experiment: DNA chip mRNA expression in yeast, metabolism protein genes (Table 7)
Format: cell-based, Saccharomyces cerevisiae S288C
Procedure, shortened: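 Measured as treated-to-untreated fluorescence ratio on a full-genome yeast DNA chip. Cells (S288C, YPD, 25° C.) were exposed in log phase for two hours to one chemical, dosed to curb growth without killing.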

N#Cc1c(Cl)c(Cl)c(Cl)c(C#N)c1Cl [(9), 2,4,5,6-tetrachloro-1,3-benzenedicarbonitrile]
level of expressed mRNA in the presence/in the absence of chemical substance (yeast gene YJL121C): 0.1
The level of expressed mRNA in the presence of chemical substance/The level of expressed mRNA in the absence of chemical substance (yeast gene YJL172W): 0.7
The level of expressed mRNA in the presence of chemical substance/The level of expressed mRNA in the absence of chemical substance (yeast gene YJL219W): 4.0
The level of expressed mRNA in the presence of chemical substance/The level of expressed mRNA in the absence of chemical substance (yeast gene YJL221C): 2.7
level of expressed mRNA in the presence/in the absence of chemical substance (yeast gene YJR077C): 0.4
The level of expressed mRNA in the presence of chemical substance/The level of expressed mRNA in the absence of chemical substance (yeast gene YJR137C): 9.0
level of expressed mRNA in the presence/in the absence of chemical substance (yeast gene YJR143C): 0.1
The level of expressed mRNA in the presence of chemical substance/The level of expressed mRNA in the absence of chemical substance (yeast gene YJR148W): 0.7
The level of expressed mRNA in the presence of chemical substance/The level of expressed mRNA in the absence of chemical substance (yeast gene YJR155W): 38.2
The level of expressed mRNA in the presence of chemical substance/The level of expressed mRNA in the absence of chemical substance (yeast gene YKL035W): 0.8
level of expressed mRNA in the presence/in the absence of chemical substance (yeast gene YKL060C): 0.3
The level of expressed mRNA in the presence of chemical substance/The level of expressed mRNA in the absence of chemical substance (yeast gene YKL091C): 2.3
The level of expressed mRNA in the presence of chemical substance/The level of expressed mRNA in the absence of chemical substance (yeast gene YKL104C): 1.4
level of expressed mRNA in the presence/in the absence of chemical substance (yeast gene YKL148C): 1.7
The level of expressed mRNA in the presence of chemical substance/The level of expressed mRNA in the absence of chemical substance (yeast gene YKL152C): 0.9
level of expressed mRNA in the presence/in the absence of chemical substance (yeast gene YKL157W): 1.7
The level of expressed mRNA in the presence of chemical substance/The level of expressed mRNA in the absence of chemical substance (yeast gene YKL213C): 4.8
The level of expressed mRNA in the presence of chemical substance/The level of expressed mRNA in the absence of chemical substance (yeast gene YKL215C): 1.3
level of expressed mRNA in the presence/in the absence of chemical substance (yeast gene YKR034W): 0.5
The level of expressed mRNA in the presence of chemical substance/The level of expressed mRNA in the absence of chemical substance (yeast gene YKR039W): 1.9
The level of expressed mRNA in the presence of chemical substance/The level of expressed mRNA in the absence of chemical substance (yeast gene YLL058W): 3.5
level of expressed mRNA in the presence/in the absence of chemical substance (yeast gene YLR006C): 1.1
level of expressed mRNA in the presence/in the absence of chemical substance (yeast gene YLR058C): 0.2
level of expressed mRNA in the presence/in the absence of chemical substance (yeast gene YLR081W): 0.1
level of expressed mRNA in the presence/in the absence of chemical substance (yeast gene YLR089C): 0.5
The level of expressed mRNA in the presence of chemical substance/The level of expressed mRNA in the absence of chemical substance (yeast gene YLR142W): 3.1
The level of expressed mRNA in the presence of chemical substance/The level of expressed mRNA in the absence of chemical substance (yeast gene YLR164W): 5.3
The level of expressed mRNA in the presence of chemical substance/The level of expressed mRNA in the absence of chemical substance (yeast gene YLR180W): 0.8
The level of expressed mRNA in the presence of chemical substance/The level of expressed mRNA in the absence of chemical substance (yeast gene YLR260W): 2.6
The level of expressed mRNA in the presence of chemical substance/The level of expressed mRNA in the absence of chemical substance (yeast gene YLR273C): 2.8
level of expressed mRNA in the presence/in the absence of chemical substance (yeast gene YLR284C): 0.9
The level of expressed mRNA in the presence of chemical substance/The level of expressed mRNA in the absence of chemical substance (yeast gene YLR299W): 4.9
The level of expressed mRNA in the presence of chemical substance/The level of expressed mRNA in the absence of chemical substance (yeast gene YLR300W): 0.0
level of expressed mRNA in the presence/in the absence of chemical substance (yeast gene YLR304C): 0.1
The level of expressed mRNA in the presence of chemical substance/The level of expressed mRNA in the absence of chemical substance (yeast gene YLR307W): 0.6
The level of expressed mRNA in the presence of chemical substance/The level of expressed mRNA in the absence of chemical substance (yeast gene YLR348C): 2.1
level of expressed mRNA in the presence/in the absence of chemical substance (yeast gene YLR354C): 0.4
level of expressed mRNA in the presence/in the absence of chemical substance (yeast gene YML022W): 0.3
The level of expressed mRNA in the presence of chemical substance/The level of expressed mRNA in the absence of chemical substance (yeast gene YML042W): 3.8
The level of expressed mRNA in the presence of chemical substance/The level of expressed mRNA in the absence of chemical substance (yeast gene YML054C): 4.1
The level of expressed mRNA in the presence of chemical substance/The level of expressed mRNA in the absence of chemical substance (yeast gene YML070W): 4.5
The level of expressed mRNA in the presence of chemical substance/The level of expressed mRNA in the absence of chemical substance (yeast gene YML100W): 1.7
The level of expressed mRNA in the presence of chemical substance/The level of expressed mRNA in the absence of chemical substance (yeast gene YML110C): 2.7
The level of expressed mRNA in the presence of chemical substance/The level of expressed mRNA in the absence of chemical substance (yeast gene YMR008C): 0.3
level of expressed mRNA in the presence/in the absence of chemical substance (yeast gene YMR015C): 0.1
The level of expressed mRNA in the presence of chemical substance/The level of expressed mRNA in the absence of chemical substance (yeast gene YMR020W): 2.3
level of expressed mRNA in the presence/in the absence of chemical substance (yeast gene YMR083W): 0.4
The level of expressed mRNA in the presence of chemical substance/The level of expressed mRNA in the absence of chemical substance (yeast gene YMR105C): 0.6
The level of expressed mRNA in the presence of chemical substance/The level of expressed mRNA in the absence of chemical substance (yeast gene YMR189W): 0.7
level of expressed mRNA in the presence/in the absence of chemical substance (yeast gene YMR205C): 0.3
level of expressed mRNA in the presence/in the absence of chemical substance (yeast gene YMR261C): 1.6
The level of expressed mRNA in the presence of chemical substance/The level of expressed mRNA in the absence of chemical substance (yeast gene YMR271C): 8.0
The level of expressed mRNA in the presence of chemical substance/The level of expressed mRNA in the absence of chemical substance (yeast gene YMR296C): 0.4
level of expressed mRNA in the presence/in the absence of chemical substance (yeast gene YMR323W): 0.5
The level of expressed mRNA in the presence of chemical substance/The level of expressed mRNA in the absence of chemical substance (yeast gene YNL012W): 3.3
level of expressed mRNA in the presence/in the absence of chemical substance (yeast gene YNL025C): 1.1
The level of expressed mRNA in the presence of chemical substance/The level of expressed mRNA in the absence of chemical substance (yeast gene YNL037C): 0.6
The level of expressed mRNA in the presence of chemical substance/The level of expressed mRNA in the absence of chemical substance (yeast gene YNL045W): 1.3
The level of expressed mRNA in the presence of chemical substance/The level of expressed mRNA in the absence of chemical substance (yeast gene YNL104C): 1.1
The level of expressed mRNA in the presence of chemical substance/The level of expressed mRNA in the absence of chemical substance (yeast gene YNL106C): 0.7
The level of expressed mRNA in the presence of chemical substance/The level of expressed mRNA in the absence of chemical substance (yeast gene YNL169C): 1.1
The level of expressed mRNA in the presence of chemical substance/The level of expressed mRNA in the absence of chemical substance (yeast gene YNL231C): 2.2
The level of expressed mRNA in the presence of chemical substance/The level of expressed mRNA in the absence of chemical substance (yeast gene YNL264C): 3.3
The level of expressed mRNA in the presence of chemical substance/The level of expressed mRNA in the absence of chemical substance (yeast gene YNL322C): 0.7
The level of expressed mRNA in the presence of chemical substance/The level of expressed mRNA in the absence of chemical substance (yeast gene YNL331C): 42.6
The level of expressed mRNA in the presence of chemical substance/The level of expressed mRNA in the absence of chemical substance (yeast gene YNL332W): 3.3
The level of expressed mRNA in the presence of chemical substance/The level of expressed mRNA in the absence of chemical substance (yeast gene YNR002C): 3.9
The level of expressed mRNA in the presence of chemical substance/The level of expressed mRNA in the absence of chemical substance (yeast gene YNR019W): 1.8
The level of expressed mRNA in the presence of chemical substance/The level of expressed mRNA in the absence of chemical substance (yeast gene YNR033W): 3.6
The level of expressed mRNA in the presence of chemical substance/The level of expressed mRNA in the absence of chemical substance (yeast gene YNR059W): 1.8
The level of expressed mRNA in the presence of chemical substance/The level of expressed mRNA in the absence of chemical substance (yeast gene YNR071C): 3.1
The level of expressed mRNA in the presence of chemical substance/The level of expressed mRNA in the absence of chemical substance (yeast gene YOL058W): 0.1
level of expressed mRNA in the presence/in the absence of chemical substance (yeast gene YOL086C): 0.1
The level of expressed mRNA in the presence of chemical substance/The level of expressed mRNA in the absence of chemical substance (yeast gene YOL126C): 0.8
The level of expressed mRNA in the presence of chemical substance/The level of expressed mRNA in the absence of chemical substance (yeast gene YOL143C): 0.8
The level of expressed mRNA in the presence of chemical substance/The level of expressed mRNA in the absence of chemical substance (yeast gene YOL153C): 2.5
level of expressed mRNA in the presence/in the absence of chemical substance (yeast gene YOL156W): 2.3
The level of expressed mRNA in the presence of chemical substance/The level of expressed mRNA in the absence of chemical substance (yeast gene YOL165C): 46.9
level of expressed mRNA in the presence/in the absence of chemical substance (yeast gene YOR002W): 0.8
level of expressed mRNA in the presence/in the absence of chemical substance (yeast gene YOR085W): 0.5
The level of expressed mRNA in the presence of chemical substance/The level of expressed mRNA in the absence of chemical substance (yeast gene YOR099W): 0.6
level of expressed mRNA in the presence/in the absence of chemical substance (yeast gene YOR108W): 0.4
level of expressed mRNA in the presence/in the absence of chemical substance (yeast gene YOR128C): 0.3
The level of expressed mRNA in the presence of chemical substance/The level of expressed mRNA in the absence of chemical substance (yeast gene YOR130C): 2.0
The level of expressed mRNA in the presence of chemical substance/The level of expressed mRNA in the absence of chemical substance (yeast gene YOR136W): 0.3
level of expressed mRNA in the presence/in the absence of chemical substance (yeast gene YOR142W): 1.1
level of expressed mRNA in the presence/in the absence of chemical substance (yeast gene YOR176W): 1.0
level of expressed mRNA in the presence/in the absence of chemical substance (yeast gene YOR178C): 0.2
The level of expressed mRNA in the presence of chemical substance/The level of expressed mRNA in the absence of chemical substance (yeast gene YOR226C): 1.3
The level of expressed mRNA in the presence of chemical substance/The level of expressed mRNA in the absence of chemical substance (yeast gene YOR336W): 1.7
The level of expressed mRNA in the presence of chemical substance/The level of expressed mRNA in the absence of chemical substance (yeast gene YOR347C): 0.5
The level of expressed mRNA in the presence of chemical substance/The level of expressed mRNA in the absence of chemical substance (yeast gene YOR377W): 3.8
The level of expressed mRNA in the presence of chemical substance/The level of expressed mRNA in the absence of chemical substance (yeast gene YPL017C): 3.0
level of expressed mRNA in the presence/in the absence of chemical substance (yeast gene YPL028W): 1.2
level of expressed mRNA in the presence/in the absence of chemical substance (yeast gene YPL057C): 0.4
level of expressed mRNA in the presence/in the absence of chemical substance (yeast gene YPL135W): 0.5
The level of expressed mRNA in the presence of chemical substance/The level of expressed mRNA in the absence of chemical substance (yeast gene YPR026W): 0.9
level of expressed mRNA in the presence/in the absence of chemical substance (yeast gene YPR113W): 0.4
The level of expressed mRNA in the presence of chemical substance/The level of expressed mRNA in the absence of chemical substance (yeast gene YPR167C): 76.6
level of expressed mRNA in the presence/in the absence of chemical substance (yeast gene YPR183W): 0.9
